Data reported in patent publication US20260130906A1, “THERAPY COMPRISING ANTI-CD19 ANTIBODY AND SUMO-ACTIVATING ENZYME INHIBITOR” (TAKEDA PHARMACEUTICAL COMPANY LIMITED, priority 2021, published 2026).

Columns and labels:
[1] = test system: NK cells co-cultured with DAUDI cells; test: Degranulation of NK cells (CD107a); assay type: cell-based, human; settings: PBMCs pre-treated 1 μM TAK-981 24 h and/or 0.1 or 10 nM tafasitamab; E:T 10:1; 3 h; vs DMSO control or mono treatments; FIG. 2
Procedure: Whole Blood was collected from healthy volunteers. PBMCs were isolated via density-gradient centrifugation using Biocoll (Biochrome) or Pancoll (PAN Biotech) separating solution and SepMate tubes (STEMCELL Technologies).
Freshly isolated PBMCs were first pre-treated with 1 μM TAK-981 or DMSO-containing buffer for 24 hours. PBMCs with or without TAK-981 pre-treatment were co-cultured with DAUDI cells at an E:T ratio of 10:1 and incubated with 0.1 or 10 nM tafasitamab or no antibody at 37° C. and 5% CO2. After 1 hour, 2 μM Monensin was added to each well and CD107a expression was analyzed by flow cytometry after a total incubation time of 3 hours.

[2] = test system: Daudi human xenograft tumor model; test: Study 1: Daudi human xenograft tumor model; assay type: in vivo, CB17 SCID mice; settings: for tumor growth inhibition as a single agent (in words): Daudi human Burkitt's lymphoma mouse model; for GRI % / Tumor volume on Day 21 (±SEM): Daudi; for GRI %: Day 21, vs vehicle; for Tumor volume on Day 21 (±SEM): in mm³ (unit assumed)
Procedure: The differences in the tumor growth trends over time between pairs of treatment groups were assessed by fitting each animal's data to a simple exponential growth model and comparing the mean growth rates of the two groups, as described in more detail below. The difference in the growth rates was summarized by the GRI, which is the reduction in growth rate experienced by the treatment group relative to that of the reference group, expressed as a fraction of the vehicle growth rate.
A GRI greater than 100% is interpreted as tumor regression when the vehicle group is the same as the reference group. A negative value of the GRI means that the tumors in the treatment group grew faster than the tumors in the reference group. Statistical significance was determined using an unpaired t-test.
Low tumor volumes can cause problems with the data analysis, so all measurements below 25 cubic mm (including 0 values) were excluded from the analysis. After this exclusion step, the tumor volume was assumed to follow an exponential growth model. […]
Daudi is a human Burkitt's Lymphoma cell line. A Daudi human xenograft tumor model was generated by subcutaneous inoculation in the flank of 9 week old female CB17 SCID mice (Charles River Laboratories, Wilmington, MA) with 2.0×10^6 Daudi cells (cell suspension in 0.1 ml RPMI with Matrigel 1:1). When the mean tumor volume reached approximately 140 mm^3, the animals were randomized into one vehicle control group and seven treatment groups (n=7/group) as described in Table 1a. Mice were then dosed with 20% HPβCD or Compound I-263a and/or tafasitamab over a 3 week period. In the combination treatment groups, I-263a was administered first, followed immediately by the administration of tafasitamab. Tumor growth and body weight were measured twice per week during the treatment and post-treatment periods, and mice were humanely euthanized once they had reached their humane endpoint. Tumors were measured using Vernier calipers and volumes were calculated using standard equation: V=W^2×L/2, where V=volume, W=width, and L=length for the tumor.
A 0.8625 mg/mL stock solution of I-263a was formulated weekly in 20% HPβCD and administered intravenously (IV) based on an average body weight using a 0.2 mL dosing volume. Final dose of I-263a received was 7.5 mg/kg. I-263a was administered on a BIW schedule for 3 weeks (Days 0, 4, 7, 11, 14, 18). Tafasitamab was formulated prior to each injection in 0.9% saline at 0.354, 1.15, and 2.3 mg/mL. Final dose of tafasitamab received was 3, 10, or 20 mg/kg based on average body weight. Tafasitamab was administered intraperitoneally (IP) using a 0.2 mL dosing volume, on a BIW schedule for 3 weeks (Days 0, 4, 7, 11, 14, 18). The vehicle group received IV treatment with the vehicle for I-263a (20% HPβCD) on a BIW schedule for three weeks (Days 0, 4, 7, 11, 14, 18).
Statistical analysis for growth rate inhibition was performed on data up to and including Day 21.

DAUDI = test: ADCP assay (macrophages); assay type: cell-based, human; settings: macrophages pre-treated 1 μM TAK-981 and/or 1 nM tafasitamab, E:T 2:1, 3 h, FIG. 4
Procedure: Monocytes were positively selected from PBMCs using CD14 MicroBeads on a MACS LS column according to the manufacturer's protocol (Miltenyi Biotec). Isoltaed cells were re-suspended in RPMI medium supplemented with 10% FCS and 1× GlutaMax. Monocytes were maturated into macrophages in T-flasks for 6 to 7 days in the presence of 50 ng/ml M-CSF.
After maturation, macrophages were stained with 2 μM CFSE and detached using 5 mM EDTA and scraping. After washing with PBS, macrophages were re-suspended in medium containing either DMSO (negative control) or 1 μM TAK-981 and allowed to re-attach in 96 well culture plates for 16-24 hours. Target cells were stained using the CellTrace Violet Cell Proliferation Kit (Invitrogen) and co-cultured with pre-treated macrophages in the presence or absence of 1 nM tafasitamab for 3 hours at an E:T ratio of 2:1. The cells were detached using 0.05% Trypsin-EDTA and transferred into multi-well flow cytometry plates. Using flow cytometry the percentage of phagocytosis was evaluated, defined as the percentage of double positive cells out of all CellTrace Violet positive cells.

| Compound | percentage of CD107+ NK cells [1] | tumor growth inhibition as a single agent (in words) [2] | GRI % ([2]; I-263a 7.5 mg/kg IV BIW) [%] | Tumor volume on Day 21 (±SEM) ([2]; I-263a 7.5 mg/kg IV BIW 3 weeks) | Phagocytosis (DAUDI) | GRI % ([2]; tafasitamab 3 mg/kg IP BIW) [%] | GRI % ([2]; tafasitamab 10 mg/kg IP BIW) [%] | GRI % ([2]; tafasitamab 20 mg/kg IP BIW) [%] | Tumor volume on Day 21 (±SEM) ([2]; tafasitamab 3 mg/kg IP BIW 3 weeks) | Tumor volume on Day 21 (±SEM) ([2]; tafasitamab 10 mg/kg IP BIW 3 weeks) | Tumor volume on Day 21 (±SEM) ([2]; tafasitamab 20 mg/kg IP BIW 3 weeks) |
| --- | --- | --- | --- | --- | --- | --- | --- | --- | --- | --- | --- |
| Cc1sc(C(=O)c2cncnc2N[C@@H]2C[C@H](COS(N)(=O)=O)[C@@H](O)C2)cc1[C@@H]1NCCc2ccc(Cl)cc21 [Compound I-263a, [(1R,2S,4R)-4-{[5-({4-[(1R)-7-chloro-1,2,3,4-tetrahydroisoquinolin-1-yl]-5-methyl-2-thienyl}carbonyl)pyrimidin-4-yl]amino}-2-hydroxycyclopentyl]methyl sulfamate] | elevated percentage of CD107+ NK cells | inhibits tumor growth | 32 | 1015.9 ± 137.9 | effectively phagocytosed |  |  |  |  |  |  |
| Tafasitamab: humanized monoclonal antibody that targets the antigen CD19, engineered in the IgG Fc-region to enhance ADCC; sequences in Table 1 | elevated percentage of CD107+ NK cells | inhibits tumor growth |  |  | effectively phagocytosed | 24 | 28 | 38 | 1142 ± 135.1 | 1132.7 ± 116.5 | 835.2 ± 89.1 |
